From article PMC9127571 (eBioMedicine, 2022)
Values after ≈ are worked out from the molar mass of the structure shown. “Also recorded” adds a separate entry of the source.

Assays:
[1] = Phase 1a plasma pharmacokinetics of SJ733 and metabolite SJ506; type: in vivo, human
[2] = Phase 1a safety and tolerability: adverse events, ECG, laboratory tests; type: in vivo, human
[3] = Beagle dog oral toxicology, safety pharmacology and toxicokinetics; type: in vivo; settings: high doses
[4] = tested on: P. falciparum; settings: cited from earlier work
[5] = Cobicistat plasma pharmacokinetics; type: in vivo, human; settings: 150 mg, all individuals
[6] = MAD and cobicistat-boosted SAD cohorts

Row | time by which levels were below LLOQ (10 ng/mL) [5] | SMILES | individuals with time above MIC >96 h ([1]; 300 mg daily for 3 days) | individuals with time above MIC >96 h ([1]; 600 mg daily for 3 days) | decrease in median post-hoc apparent clearance ([1]; SAD cohorts without vs with cobicistat) | AUC(0-inf) ([1]; human, plasma, oral) | Cmax ([1]; human, plasma, oral, maximal Cmax, unboosted SAD and MAD cohorts) | relatedness of all AEs to SJ733 or cobicistat [2, 6] | serious adverse events [2, 6] | post-dose QTc above 500 ms ([2]; human, in vivo, oral) | baseline versus post-dose QTc interval change above 60 ms ([2]; instance: Day 3, 1·5 h post 300 mg, unboosted) | methemoglobinemia [3] | estimated minimum inhibitory concentration (MIC) [4] | minimum inhibitory concentration (MIC) [4]
1 |  | N#Cc1cc(NC(=O)[C@H]2c3ccccc3C(=O)N(CC(F)(F)F)[C@@H]2c2cccnc2)ccc1F [SJ733] | 0% | 50% | 72% | 104 µg·h/mL | 2180 ng/mL | unlikely related or unrelated | no serious adverse events; also recorded: no serious AEs | no post-dose QTc interval change above 500 ms | one instance | Dose-dependent, reversible methemoglobinemia | 0.15 µg/mL | 0.15 µg/mL (≈ 0.32 µM)
2 | ≤ 48 h | CC(C)c1nc(CN(C)C(=O)N[C@@H](CCN2CCOCC2)C(=O)N[C@H](CC[C@H](Cc2ccccc2)NC(=O)OCc2cncs2)Cc2ccccc2)cs1 [cobicistat] |  |  |  |  |  |  |  |  |  |  |  | 
